ChEMBL document CHEMBL1201862, “PubChem BioAssay data set” (2004)
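Test compounds were applied to cells in 96-well plates for 48 hours at 5 doses. Abbreviation: GI50, concentration required for 50% inhibition of growth.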 Activity calls are given as the source filed them. No stated cut-off is given here; in the data, active = GI50 up to about 1.1 µM and inactive = higher.

Tests used:
Test in all cases: inhibition of tumour cell growth, NCI panel, 48 h
[1] = system: 786-0
[2] = system: A498
[3] = system: A549
[4] = system: ACHN
[5] = system: BT-549
[6] = system: CAKI-1
[7] = system: COLO 205
[8] = system: DU-145
[9] = system: EKVX
[10] = system: HCC 2998
[11] = system: HCT-116
[12] = system: HCT-15
[13] = system: HOP-62
[14] = system: HOP-92
[15] = system: HT-29
[16] = system: Hs-578T
[17] = system: IGROV-1
[18] = system: K562
[19] = system: KM12
[20] = system: LOX IMVI
[21] = system: M14
[22] = system: MCF7
[23] = system: MDA-MB-231
[24] = system: MDA-MB-435
[25] = system: MDA-N
[26] = system: MOLT-4
[27] = system: Malme-3M
[28] = system: NCI-H226
[29] = system: NCI-H23
[30] = system: NCI-H460
[31] = system: NCI-H522
[32] = system: NCI/ADR-RES
[33] = system: OVCAR-3
[34] = system: OVCAR-4
[35] = system: OVCAR-5
[36] = system: OVCAR-8
[37] = system: PC-3
[38] = system: RPMI-8226
[39] = system: RXF 393
[40] = system: SF-268
[41] = system: SF-295
[42] = system: SF-539
[43] = system: SK-MEL-28
[44] = system: SK-MEL-2
[45] = system: SK-MEL-5
[46] = system: SK-OV-3
[47] = system: SN12C
[48] = system: SNB-19
[49] = system: SNB-75
[50] = system: SR
[51] = system: SW-620
[52] = system: T47D
[53] = system: TK-10
[54] = system: U-251
[55] = system: UACC-257
[56] = system: UACC-62
[57] = system: UO-31
[58] = system: CCRF-CEM

Measured: GI50

Nc1nc(Cl)cc(NCCO)n1
> 100 µM: [12]
inactive: [1] > 100 µM | [2] > 100 µM | [3] > 100 µM | [4] > 100 µM | [5] > 100 µM | [6] > 100 µM | [7] > 100 µM | [8] > 100 µM | [9] > 100 µM | [10] 72.6 µM | [11] > 100 µM | [13] > 100 µM | [14] > 100 µM | [15] > 100 µM | [16] > 100 µM | [17] > 100 µM | [18] > 100 µM | [19] > 100 µM | [20] > 100 µM | [21] > 100 µM | [22] > 100 µM | [23] > 100 µM | [24] > 100 µM | [25] > 100 µM | [26] > 100 µM | [27] > 100 µM | [28] > 100 µM | [29] > 100 µM | [30] > 100 µM | [31] > 100 µM | [32] > 100 µM | [33] > 100 µM | [34] > 100 µM | [35] > 100 µM | [36] > 100 µM | [37] > 100 µM | [38] > 100 µM | [39] > 100 µM | [40] > 100 µM | [41] > 100 µM | [42] > 100 µM | [43] > 100 µM | [44] > 100 µM | [45] > 100 µM | [46] > 100 µM | [47] > 100 µM | [48] > 100 µM | [49] > 100 µM | [50] > 100 µM | [51] > 100 µM | [52] > 100 µM | [53] > 100 µM | [54] > 100 µM | [55] > 100 µM | [56] > 100 µM | [57] > 100 µM

O=C1/C(=C\c2cccc(Oc3ccccc3)c2)S(=O)(=O)C(c2ccccc2)N1c1cc(Cl)ccc1Cl (centres undefined)
21 µM: [12]
inactive: [1] 16.1 µM | [2] 39.2 µM | [3] 22.2 µM | [4] 18.8 µM | [5] 18 µM | [6] 24.7 µM | [58] 3.05 µM | [7] 22.2 µM | [8] 20.9 µM | [9] 27.8 µM | [10] 21.7 µM | [11] 4.6 µM | [13] 19.4 µM | [14] 16.9 µM | [15] 5.96 µM | [16] 33.7 µM | [17] 15.6 µM | [18] 3.74 µM | [19] 22.9 µM | [20] 5.25 µM | [21] 16.5 µM | [22] 4.13 µM | [23] 28.7 µM | [24] 8.13 µM | [25] 10.3 µM | [26] 3.84 µM | [27] 20.1 µM | [29] 19.4 µM | [30] 28.1 µM | [31] 18.3 µM | [32] 22.6 µM | [33] 20.1 µM | [34] 23.1 µM | [35] 20.4 µM | [36] 5.06 µM | [37] 32.4 µM | [38] 5.94 µM | [39] 15.5 µM | [40] 18.5 µM | [41] 14.2 µM | [42] 5.43 µM | [43] 17.3 µM | [44] 28.2 µM | [45] 17 µM | [46] 39.4 µM | [47] 16.9 µM | [48] 16 µM | [49] 23.9 µM | [50] 6.31 µM | [51] 3.83 µM | [52] 20.3 µM | [53] 22.3 µM | [54] 16.5 µM | [55] 19.9 µM | [56] 15.2 µM | [57] 16.8 µM
